Assay results from patent publication US20040115804A1, “Cell system for generating somatic cells” (priority 2002, published 2004).

Experiments:
[1] = unsuitable for use in human bodies; cited from earlier work
[2] = test system: umbilical mesenchymal cells; experiment: Transformation of umbilical mesenchymal cells into neurons with BME (NF and NeuN immunostaining); format: cell-based, human; conditions: 2 mM BME, 72 hours
From the text: Neurofilament (NF) is the major cytoskeleton in neurons, which is responsible for adjusting the size, appearance and diameter of dendrites of neurons. Only neurons at the late developmental stage or mature neurons express NF. Immunostaining for NF is utilized to recognize neurons at the late stage.
Neuron-specific nuclear protein (NeuN) is a specific protein existing in the nucleus of neurons in the central nervous system of vertebrates. NeuN binds to DNA in vitro. It is known that NeuN appears earlier than NF during the development of neurons. Therefore, immunostaining for NeuN is utilized to identify neurons at the early stage of transformation.
Umbilical mesenchymal cells obtained in Example 1 were cultured in 10% FBS-DMEM for 72 hours. Two mM BME was added to the culture and the cells continued to be cultured for 72 hours.

BMSCs = conditions: in vitro culture of BMSCs; cited from earlier work
[3] = test system: haematopoietic stem cells of umbilical cord blood; conditions: cultured in 0.001% of β-Mercaptoethanol; cited from earlier work
[4] = test system: umbilical mesenchymal cells; experiment: Cardiac troponin I / F-actin immunocytochemistry after cardiac differentiation; format: cell-based, human; conditions: 3 μM 5-azacytidine for 24 hours, then growing medium 1-3 weeks
Method: Umbilical mesenchymal cells obtained in Example 1 were cultured in a cell growing medium of DMEM supplemented with about 4.5 g/L of glucose and about 10% FBS. After the cells have attached to the bottom of the cell culture plate, the cell growing medium was then replaced by a cell differentiating medium, which was prepared by supplementing the cell growing medium with 3 μM 5-azacytidine as a cell differentiating factor. Alternatively, the cell differentiating factor may be directly added to the culture.
The umbilical mesenchymal cells were cultured in the cell differentiating medium for 24 hours. The cell differentiating medium was then replaced by the cell growing medium to prevent intoxication of the cells caused by the long exposure to 5-azacytidine. The differentiated cells were further maintained in the cell growing medium for about 1-3 weeks to ensure the viability and optimal differentiation of the cells. The culture medium was replaced with fresh medium every three days. […]
Next, secondary antibodies conjugated to fluorescence or any visible dyes readily detectable by an optical instrument such as a confocal laser scanning microscope, a fluorescence microscope, or an optical microscope, Rhodamine (TRITC)-conjugated AffiniPure Donkey Anti-Goat IgG (supplied by Jackson ImmunoResearch Lab) were added at a 1:100 dilution to bind the host species of the primary antibodies. […]

[5] = test system: bone marrow stromal cells; conditions: bone marrow stromal cells treated with 5-azacytidine; cited from earlier work

Row | SMILES | toxicity [1] | NF expression (immunostaining) [2] | NeuN expression (immunostaining) [2] | cultured BMSCs induced to differentiate into neurons (BMSCs) | transformation of cord blood haematopoietic stem cells [3] | F-actin expression, cell attachment pattern [4] | C-troponin I expression ([4]; compared to untreated cells) | ultrastructure by electron microscopy [5]
1 | OCCS [BME, β-mercaptoethanol] | toxic for proteins | expressed NF | expressed NeuN | about 80% | transformed into precursors of neural cells | – | – | –
2 | Nc1ncn([C@@H]2O[C@H](CO)[C@@H](O)[C@H]2O)c(=O)n1 [cell differentiating factor, 5-azacytidine] | – | – | – | – | – | specific cell attachment pattern similar to that of the cardiomyocytes or cardiovascular cells | significant expression of C-troponin I | cardiomyocyte-like ultrastructure
